Marks after values point to notes of the source that are not given here. Square brackets hold non-standard residues; d marks the D form. Peptide text beside a SMILES is read from it. * marks the point of attachment. dPhe(4-NHCONH2) = NC(=O)Nc1ccc(C[C@@H](N)C(=O)O)cc1; Dihydroorotyl(S) = O=C1C[C@@H](C(=O)*)NC(=O)N1; dPhe(4-Cl) = N[C@H](Cc1ccc(Cl)cc1)C(=O)O; Phe(4-NH2) = Nc1ccc(C[C@H](N)C(=O)O)cc1; d2Nal = N[C@H](Cc1ccc2ccccc2c1)C(=O)O; Lys(iPr) = CC(C)NCCCC[C@H](N)C(=O)O; d3Pal = N[C@H](Cc1cccnc1)C(=O)O
Experiment: CS21 safety: treatment-emergent adverse events (MedDRA SOC/PT), crude incidence, also by subgroup
Format: in vivo
Conditions: pooled degarelix
Protocol: The safety variables for this study were assessed on the following: the frequency and severity of adverse events (AEs); the presence of clinically significant changes in laboratory parameters (clinical chemistry, hematology and urinalysis); changes in electrocardiograms (ECGs) and vital signs; changes detected by physical examination; and body weight.
An AE was therefore any unfavorable or unintended sign (including an abnormal laboratory finding), symptom or disease temporally associated with the use of the product, whether or not related to the IMP.
An adverse drug reaction (ADR) was defined as an AE evaluated by the investigator as being probably or possibly related to treatment with the IMP.
AEs were graded according to the National Cancer Institute (NCI) Common Terminology Criteria for Adverse Events (CTCAE). In accordance with the CTCAE criteria, AEs were rated on a five-point scale corresponding to mild, moderate, severe, life-threatening or disabling and death. For those AEs not described in the CTCAE, a separate five-point rating scale was used for rating of the intensity of AEs as follows below:
Safety parameters were evaluated for all patients included in the ITT analysis set, comprising all 610 randomized patients who received at least one dose of study medication. All safety tables include four columns: the three treatment groups described separately, and the pooled degarelix group.
Adverse events were regarded as ‘treatment-emergent’ if they occurred in the time interval from initial dosing to end-of-study. Adverse events were considered ‘pre-treatment’ if they occurred between screening and the initial injections of IMP. As described above, all AEs were classified according to MedDRA (version 10.0) system organ class (SOC), sorted alphabetically, and by preferred term (PT), in decreasing frequency of occurrence. Treatment-emergent AEs were expressed in terms of intensity (using NCI CTCAE) and relationship to study drug.
Using the results from the summary of clinical efficacy (SCE) and summary of clinical safety (SCS) findings, different patient subgroups were analyzed. Subgroup distinguishers included race (white, black, and other), age (<65 years, […], and >75 years), weight (<70 kg, ≥70−<90 kg, and ≥90 kg), body mass index (BMI) (≤20, >20 to 30, and >30 kg/m^2)), region (North-America, Western Europe, Central and Eastern Europe and Other), and stage of prostate cancer (e.g., localized, locally advanced, and metastatic).

In the case of `CC(=O)N[C@H](Cc1ccc2ccccc2c1)C(=O)N[C@H](Cc1ccc(Cl)cc1)C(=O)N[C@H](Cc1cccnc1)C(=O)N[C@@H](CO)C(=O)N[C@@H](Cc1ccc(NC(=O)[C@@H]2CC(=O)NC(=O)N2)cc1)C(=O)N[C@H](Cc1ccc(NC(N)=O)cc1)C(=O)N[C@@H](CC(C)C)C(=O)N[C@@H](CCCCNC(C)C)C(=O)N1CCC[C@H]1C(=O)N[C@H](C)C(N)=O` [Degarelix, D-Alaninamide, N-acetyl-3-(2-naphthalenyl)-D-alanyl-4-chloro-D-phenylalanyl-3-(3-pyridinyl)-D-alanyl-L-seryl-4-[[[(4S)-hexahydro-2,6-dioxo-4-pyrimidinyl]carbonyl]amino]-L phenylalanyl-4-[(aminocarbonyl)amino]-D-phenylalanyl-L leucyl-N6-(1-methylethyl)-L-lysyl-L-prolyl] (Ac-[d2Nal][dPhe(4-Cl)][d3Pal]S[Phe(4-NH2)](Dihydroorotyl(S))[dPhe(4-NHCONH2)]L[Lys(iPr)]P[dA]-NH2), the “Gastrointestinal disorders, % of patients” value (Age <65) is reported as “(9%)*”, the “Infections and infestations, % of patients” value (Age <65) is reported as “(16%)” and the “Musculoskeletal and connective tissue disorders, % of patients” value (Age <65) is reported as “(9%)**”. For the same compound, the “Renal and urinary disorders, % of patients” value (Age <65) was “(10%)*”, the “Subjects with adverse events, %” value (Age <65) was “(75%)” and the “Urinary retention, % of patients” value (Age <65) was “(1%)*”. The “Depression, % of patients” value (PCA = Localised) was “(<1%)*”, the “Erectile dysfunction, % of patients” value (PCA = Localised) was “(<1%)*” and the “Gynaecomastia, % of patients” value (PCA = Localised) was “(<1%)”. For the same compound, the “Infections and infestations, % of patients” value (PCA = Localised) was “(17%)”, the “Musculoskeletal and connective tissue disorders, % of patients” value (PCA = Localised) was “(16%)” and the “Neoplasms benign, malignant and unspecified, % of patients” value (PCA = Localised) was “(3%)”. The “Oedema peripheral, % of patients” value (PCA = Localised) was “(2%)*”, the “Psychiatric disorders, % of patients” value (PCA = Localised) was “(9%)” and the “Reproductive system and breast disorders, % of patients” value (PCA = Localised) was “(4%)”. The “Subjects with adverse events, %” value (PCA = Localised) was “(81%)”, the “Upper respiratory tract infection, % of patients” value (PCA = Localised) was “(3%)” and the “Urinary tract infection, % of patients” value (PCA = Localised) was “(2%)*”. For the same compound, the “Arthralgia, % of patients” value (PCA = Locally advanced) was “(2%)**”, the “Back pain, % of patients” value (PCA = Locally advanced) was “( 5%)” and the “Cardiac disorders, % of patients” value (PCA = Locally advanced) was “(3%)”. The “Diarrhoea, % of patients” value (PCA = Locally advanced) was “(<1%)*”, the “Dyspnoea, N patients” value (PCA = Locally advanced) was 0 and the “Fall, % of patients” value (PCA = Locally advanced) was “(<1%)”. For the same compound, the “Gastrointestinal disorders, % of patients” value (PCA = Locally advanced) was “(13%)”, the “Infections and infestations, % of patients” value (PCA = Locally advanced) was “(13%)” and the “Injury, poisoning and procedural complications, % of patients” value (PCA = Locally advanced) was “(2%)**”. For the same compound, the “Muscle strain, % of patients” value (PCA = Locally advanced) was “(<1%)”, the “Musculoskeletal and connective tissue disorders, % of patients” value (PCA = Locally advanced) was “(10%)” and the “Respiratory, thoracic and mediastinal disorders, % of patients” value (PCA = Locally advanced) was “( 7%)”. For the same compound, the “Subjects with adverse events, %” value (PCA = Locally advanced) was “(74%)”, the “Urinary tract infection, % of patients” value (PCA = Locally advanced) was “(<1%)**” and the “Arthralgia, % of patients” value (PCA = Metastatic) was “( 5%)”. For the same compound, the “Back pain, % of patients” value (PCA = Metastatic) was “( 5%)”, the “Gastrointestinal disorders, % of patients” value (PCA = Metastatic) was “(15%)” and the “Musculoskeletal and connective tissue disorders, % of patients” value (PCA = Metastatic) was “(21%)”. The “Pain in extremity, % of patients” value (PCA = Metastatic) was “( 1%)”, the “Subjects with adverse events, %” value (PCA = Metastatic) was “(81%)” and the “Erectile dysfunction, % of patients” value (Race = Other) was “(2%)*”. For the same compound, the “Infections and infestations, % of patients” value (Race = Other) was “(33%)”, the “Reproductive system and breast disorders, % of patients” value (Race = Other) was “(10%)” and the “Subjects with adverse events, %” value (Race = Other) was “(95%)”. For the same compound, the “Urinary tract infection, % of patients” value (Race = Other) was “(5%)*”, the “Cardiac disorders, % of patients” value (Race = White) was “(10%)” and the “Chest pain, % of patients” value (Race = White) was “(<1%)*”. For the same compound, the “Cystitis noninfective, N patients” value (Race = White) was 0, the “Deep vein thrombosis, N patients” value (Race = White) was 0 and the “Infections and infestations, % of patients” value (Race = White) was “(19%)”. The “Investigations, % of patients” value (Race = White) was “(26%)”, the “Musculoskeletal and connective tissue disorders, % of patients” value (Race = White) was “(15%)**” and the “Musculoskeletal stiffness, N patients” value (Race = White) was 0. The “Myocardial ischaemia, % of patients” value (Race = White) was “(<1%)*”, the “Oedema peripheral, % of patients” value (Race = White) was “(1%)*” and the “Orthostatic hypotension, N patients” value (Race = White) was 0. The “Renal and urinary disorders, % of patients” value (Race = White) was “(14%)”, the “Subjects with adverse events, %” value (Race = White) was “(79%)” and the “Upper respiratory tract infection, % of patients” value (Race = White) was “(<1%)*”. For the same compound, the “Urinary retention, % of patients” value (Race = White) was “( 1%)*”, the “Vascular disorders, % of patients” value (Race = White) was “(31%)” and the “Cardiac disorders, % of patients” value (Weight 70-<90 kg) was “( 5%)*”. For the same compound, the “Erectile dysfunction, % of patients” value (Weight 70-<90 kg) was “(<1%)*”, the “Nervous system disorders, % of patients” value (Weight 70-<90 kg) was “(12%)” and the “Reproductive system and breast disorders, % of patients” value (Weight 70-<90 kg) was “( 5%)”. The “Subjects with adverse events, %” value (Weight 70-<90 kg) was “(81%)”, the “Arthralgia, % of patients” value (Weight <70 kg) was “( 3%)**” and the “Musculoskeletal and connective tissue disorders, % of patients” value (Weight <70 kg) was “(17%)*”. The “Pelvic pain, N patients” value (Weight <70 kg) was 0, the “Reproductive system and breast disorders, % of patients” value (Weight <70 kg) was “(4%)*” and the “Subjects with adverse events, %” value (Weight <70 kg) was “(78%)”. The “Arthralgia, % of patients” value (Weight >=90 kg) was “( 5%)”, the “Back pain, % of patients” value (Weight >=90 kg) was “( 5%)*” and the “Infections and infestations, % of patients” value (Weight >=90 kg) was “(26%)”. The “Musculoskeletal and connective tissue disorders, % of patients” value (Weight >=90 kg) was “(15%)*”, the “Neoplasms benign, malignant and unspecified, % of patients” value (Weight >=90 kg) was “(1%)*” and the “Subjects with adverse events, %” value (Weight >=90 kg) was “(84%)”. For the same compound, the “Urinary tract infection, % of patients” value (Weight >=90 kg) was “( 3%)*”.

— patent US11766468B2, “Method of treating prostate cancer with GnRH antagonist” (priority 2012, dated 2023)
